# Results published in the OPERA property sets (Mansouri et al. 2018).
# Conditions: for log10 biotransformation half-life (days) / log10 BCF: fish
Structure (SMILES),boiling point [°C],melting point [°C],further results
CCOC(=O)C(C(C)=O)C(=O)OCC,232,–,–
CCCCCCCCC1CCCCC1,264,-20,log10 vapour pressure (mmHg): -2.04; log10 biotransformation half-life (days): 1.1
C=C[C@H]1C[N@@]2CC[C@H]1C[C@H]2C12Nc3ccccc3C1(O)CCO2 (some centres not stated),–,186,–
O=c1cccccc1,–,-7,–
CN(C)CCCN,133,-60,log10 vapour pressure (mmHg): 1
O[C@H]1CC[C@H](O)CC1,–,143,–
CC(=O)Oc1cc(C(F)(F)F)ccc1C(=O)O,–,121,–
N#C[S-].[K+],–,173,–
O=C(c1ccccc1)C(O)c1ccccc1 (racemic),344,137,log10 vapour pressure (mmHg): -5.28
Nc1c(Cl)cc(Cl)cc1Br,273,83.5,–
Cn1sc(Cl)cc1=O,–,–,ready biodegradability: not readily biodegradable
CCOP(=S)(OCC)SCSCC,–,–,log10 Koc (L/kg): 2.7; log10 vapour pressure (mmHg): -3.2
Clc1ccc(Br)c(Cl)c1,235,26,–
CO[C@H]1O[C@H](CO)[C@@H](O)[C@H](O)[C@H]1O,–,168,–
CN(C)c1cccc2c(S(N)(=O)=O)cccc12,–,220,–
COC(=O)CS,148,–,log10 vapour pressure (mmHg): 0.477
Oc1ccc2c(O)cccc2c1,–,138,–
CCCCC(CC)CNCC(CC)CCCC (configuration not stated),281,-60,log10 vapour pressure (mmHg): -2
C=CCC(C(C)=O)C(C)=O,199,–,–
O=C(c1ccccc1)c1ccccn1,317,42,ready biodegradability: readily biodegradable
O=C1Cc2ccccc2O1,249,50,–
OC[C@H]1O[C@@H](n2cnc3cncnc32)[C@H](O)[C@@H]1O,–,181,–
C=CCCC(C)=O,130,–,log10 vapour pressure (mmHg): 1.02
CN(C)CC(O)CN(C)C,182,–,–

Structure (SMILES),boiling point [°C],melting point [°C],further results
NC(=O)COc1ccccc1,–,102,–
O=[N+]([O-])c1ccc(CBr)cc1,–,99,–
Oc1c(Cl)cc(Cl)c2cccnc12,–,180,–
COc1c(Cl)c(Cl)cc(Cl)c1Cl,–,88.5,log10 BCF: 3.69
CC(C)C1=CC(=O)C(C)CC1 (configuration not stated),236,–,–
c1ccc(N=Nc2ccccc2)cc1,293,68.2,log10 Koc (L/kg): 3.3; log10 vapour pressure (mmHg): -3.44; ready biodegradability: not readily biodegradable
CCOC(=O)COC(=O)c1cc(Oc2ccc(C(F)(F)F)cc2Cl)ccc1[N+](=O)[O-],–,65,–
C=CCC1(C(C)C)C(=O)NC(=O)N(C)C1=O (configuration not stated),–,56.5,–
CCC(=O)OCCc1ccccc1,238,–,–
CCCCC(CC)C(=O)OCC(COC(=O)C(CC)CCCC)OC(=O)C(CC)CCCC (configuration not stated),–,–,ready biodegradability: readily biodegradable
O=C(O)CCCCCC(=O)O,342,106,log10 vapour pressure (mmHg): -7.05
Nc1c(Br)cc2c(c1Br)Cc1ccccc1-2,–,–,ready biodegradability: not readily biodegradable
C1CCOC1,65,-108,log10 Henry constant (atm·m³/mol): -4.15; log10 Koa: 2.86; log10 vapour pressure (mmHg): 2.21; ready biodegradability: readily biodegradable
CC1CC1,0.7,-177,log10 vapour pressure (mmHg): 3.2
ON=Cc1ccccc1O,–,57,–
CCCCCCCCCCCCCBr,296,6.2,log10 vapour pressure (mmHg): -2.87
CCOS(=O)(=O)OCC,208,-24,log10 vapour pressure (mmHg): -0.674; ready biodegradability: readily biodegradable
FC(F)(F)c1ccc(Cl)cc1,138,-33,log10 vapour pressure (mmHg): 0.882
CCCCCCC(C)=O,172,-16,log10 Henry constant (atm·m³/mol): -3.73; log10 vapour pressure (mmHg): 0.13; ready biodegradability: readily biodegradable
CC(C)(C)c1nnc(NS(=O)(=O)c2ccccc2)s1,–,163,–
BrC=C(Br)Br,164,–,–
CC[C@H]1CC[C@H]2[C@@H]3CC[C@@H]4CCCC[C@]4(C)[C@H]3CC[C@]12C,–,84,–
CCCOC(=O)C(C)C,135,–,log10 vapour pressure (mmHg): 0.924
NC(=O)C1CCN(CCCN2c3ccccc3Sc3ccc(Cl)cc32)CC1,–,139,–

Structure (SMILES),boiling point [°C],melting point [°C],further results
Cc1cc(C(=O)C(F)(F)F)ccc1Cl,–,–,ready biodegradability: not readily biodegradable
COc1ccc(CC=O)cc1,256,–,–
Cc1ccc(C(=O)Cl)cc1,226,-3,–
Clc1ccc2c(c1)C(c1ccccc1)=NCc1nncn1-2,–,228,–
C=Cc1ccccc1C,170,-68.5,log10 vapour pressure (mmHg): 0.268
CSCC[C@H](NC(C)=O)C(=O)O,–,106,–
O=CNC(N1CCN(C(NC=O)C(Cl)(Cl)Cl)CC1)C(Cl)(Cl)Cl (configuration not stated),–,–,log10 Koc (L/kg): 2.3; log10 vapour pressure (mmHg): -6.7
CN1CCC2=C(C1)C(c1ccccc1)c1ccccc12 (configuration not stated),–,91,–
Fc1ccc(F)c(F)c1F,94.3,-42,log10 vapour pressure (mmHg): 1.69
COc1ccccc1OC,206,22.5,log10 Koc (L/kg): 2.03; log10 vapour pressure (mmHg): -0.328; ready biodegradability: readily biodegradable
CCC(N)C(=O)O (configuration not stated),–,304,–
C[C@]12C=CC(=O)C=C1CC[C@@H]1[C@@H]2CC[C@@]2(C)[C@H]1CC[C@]2(C)O,–,164,–
CCCCCCCC[C@H](O)[C@H](O)CCCCCCCC(=O)O,–,90,–
CCN(CC)C(N)=O,–,75,–
C[C@](N)(Cc1ccc(O)cc1)C(=O)O,–,312,–
COP(=S)(OC)Oc1ccc(S(=O)(=O)N(C)C)cc1,–,53,ready biodegradability: readily biodegradable
COc1cc(C(=O)NCCCCCC(=O)O)cc(OC)c1OC,–,122,–
CC1CS1 (configuration not stated),72.5,-91,–
N[C@@H]1CONC1=O,–,140,–
FC(F)F,-82.1,-155,log10 Henry constant (atm·m³/mol): -1.02; log10 vapour pressure (mmHg): 4.55
CCCC(C)(C)CC(C)C,151,–,–
COc1cc(Cl)c(Cl)c(Cl)c1O,–,–,log10 Koc (L/kg): 2.8; log10 vapour pressure (mmHg): -2.73; log10 BCF: 1.97
NS(=O)(=O)c1cc(-c2nnn[nH]2)c(NCc2cccs2)cc1Cl,–,220,–
NC(=O)N1CCCCC1,–,105,–

Structure (SMILES),boiling point [°C],melting point [°C],further results
Cc1ccc(C(=O)N(C)C)cc1,–,41,–
CCCCN=C=O,115,–,log10 vapour pressure (mmHg): 1.25
C=C(C)C(=C)C,68.8,-76,log10 vapour pressure (mmHg): 2.18
Brc1cncc2ccccc12,282,41.5,–
c1ccc2c(c1)C1c3ccccc3C2c2ccccc21,–,254,–
COC(C)CO (configuration not stated),130,–,–
NCc1ccncc1,230,-7.6,–
CC(C)=CC=O,134,–,–
Cn1c2ccccc2c2ccccc21,–,89.3,–
O=CCC(O)[C@H](O)CO (stereo in doubt),–,91,–
CCOC(=O)CC1CCCCC1,211,–,–
FC(F)(F)C(F)(Cl)C(F)(Cl)C(F)(F)F (configuration not stated),63,-68,–
O=[N+]([O-])c1ccc(Br)cc1,256,127,log10 Koc (L/kg): 2.42
c1ccc(C2CO2)cc1 (configuration not stated),194,-35.6,log10 vapour pressure (mmHg): -0.523; ready biodegradability: readily biodegradable
CC(C)(C)c1cc(Cn2c(=O)n(Cc3cc(C(C)(C)C)c(O)c(C(C)(C)C)c3)c(=O)n(Cc3cc(C(C)(C)C)c(O)c(C(C)(C)C)c3)c2=O)cc(C(C)(C)C)c1O,–,–,ready biodegradability: not readily biodegradable
Cc1cc(C(=O)O)ccc1N,–,170,–
c1ccc(Nc2cccc3ccccc23)cc1,–,62,ready biodegradability: not readily biodegradable; log10 BCF: 3.23
c1cc2c3c(c1)ccc1ccc4cccc-2c4c13,–,–,log10 biodegradation half-life (days): 2.54
ClC(Cl)=C(Cl)C(Cl)(Cl)Cl,210,-72.9,log10 vapour pressure (mmHg): -0.613
CC(C)Cc1ccc(CC(=O)O)cc1,–,86,–
Cc1cc(-c2ccc(N)c(C)c2)ccc1N,339,132,ready biodegradability: not readily biodegradable; log10 BCF: 1.67
C[C@H]1C[C@H]2[C@@H]3CCC4=CC(=O)C=C[C@]4(C)[C@H]3C(=O)C[C@]2(C)[C@@]1(O)C(=O)CO,–,202,–
ClCc1ccc(Cl)c(Cl)c1,241,37.5,ready biodegradability: not readily biodegradable
O=c1oc2ccccc2c(O)c1C1CC(c2ccc(-c3ccccc3)cc2)Cc2ccccc21 (configuration not stated),–,216,–

Structure (SMILES),boiling point [°C],melting point [°C],further results
CCCCCCC(=O)OC,174,-56,–
COCOC,42,-105,log10 Henry constant (atm·m³/mol): -3.76; log10 vapour pressure (mmHg): 2.6
CN(C)C(=O)Nc1cccc(F)c1,–,–,log10 Koc (L/kg): 1.73
CC(C)CCC(=O)c1ccoc1,196,–,–
CC1CC(C)CC(O)C1 (configuration not stated),187,11.6,–
CCCCCCCCCCCCCCCCC(CCC)c1ccccc1 (configuration not stated),–,31.4,–
CCC,-42.1,-188,log10 Koa: 0.97; log10 vapour pressure (mmHg): 3.85; ready biodegradability: readily biodegradable
CCOc1ccc(C(COCc2cccc(Oc3ccc(Cl)cc3)c2)C(F)(F)F)cc1 (configuration not stated),–,–,log10 vapour pressure (mmHg): -9.01
C[C@H](CCC(=O)O)[C@H]1CC[C@H]2[C@@H]3[C@H](O)C[C@@H]4C[C@H](O)CC[C@]4(C)[C@H]3C[C@H](O)[C@]12C,–,198,–
CN(C)C(=O)Nc1ccc(SC(F)(F)Cl)c(Cl)c1,–,114,–
CCCCCCCC(=O)CCC,–,4.5,–
CC(C)CC(=O)OCC(COC(=O)CC(C)C)OC(=O)CC(C)C,332,–,–
N#Cc1ccccc1OCC(O)CNCCNC(=O)Cc1ccc(O)cc1 (configuration not stated),–,119,–
CC(C)CCCCCCCCCCCCCCC(=O)O,–,–,ready biodegradability: readily biodegradable
COP(=S)(OC)Oc1ccc([N+](=O)[O-])cc1Cl,–,52.5,log10 vapour pressure (mmHg): -5.44; log10 BCF: 1.89; log10 biotransformation half-life (days): 0.01
CC(C)OC(=O)C(O)(c1ccc(Br)cc1)c1ccc(Br)cc1,–,77,log10 vapour pressure (mmHg): -7.09
c1ccc(CSSCc2ccccc2)cc1,–,71.5,–
Clc1cc2oc3c(Cl)c(Cl)cc(Cl)c3c2c(Cl)c1Cl,–,–,log10 BCF: 3.2
CC(C)CCC[C@@H](C)[C@H]1CC[C@H]2[C@@H]3CC[C@@H]4C[C@H](O)CC[C@]4(C)[C@H]3CC[C@]12C,–,143,–
CCCCCCCCCCCCCCCCCCCc1ccccc1,419,40,–
BrCc1ccc(CBr)cc1,245,144,–
BrC(Br)Br,149,8,log10 Henry constant (atm·m³/mol): -3.27; log10 Koc (L/kg): 2.06; log10 vapour pressure (mmHg): 0.732; ready biodegradability: not readily biodegradable; log10 BCF: 1.13; log10 biotransformation half-life (days): -0.7
Sc1ccccc1S,238,28.5,–
